Values of other authors, collected in patent publication US20240238224A1, “COMPOSITION FOR LOCAL ANAESTHESIA AND USES THEREOF” (priority 2023, published 2024).

System: test teeth

For CCCCN1CCCCC1C(=O)Nc1c(C)cccc1C (centres unmarked) [bupivacaine, 1-butyl-N-(2,6-dimethylphenyl)piperidine-2-carboxamide], the “effectiveness compared with tetracaine” value (reported in U.S. Pat. No. 8,580,282 B2, cols. 7, 13, 14) is listed as “not as effective as tetracaine”.

For CCCCNc1ccc(C(=O)OCCN(C)C)cc1 [tetracaine, 2-(dimethylamino)ethyl 4-(butylamino)benzoate], the “effectiveness for inducing pulpal anesthesia, 4% versus 3% tetracaine” value (non-injected formulation with vasoconstrictor, reported in U.S. Pat. No. 8,580,282 B2) is listed as 4% tetracaine is less effective than 3%.
